ChEMBL document CHEMBL2073867, “cDNA cloning and inducible expression of human multidrug resistance associated protein 3 (MRP3)” (FEBS Lett, 1998)

Assays:
[1] = molecular target: Multidrug resistance associated protein (Homo sapiens) (UniProt Q96QA9); experiment: (§1) TP_TRANSPORTER: Northern blot from HepG2 cells; format: functional, cell-based
[2] = molecular target: Multidrug resistance-associated protein 1 (Homo sapiens, UniProt P33527); experiment: as §1; format: functional, cell-based
Sequence of Multidrug resistance-associated protein 1 (P33527 whole entry): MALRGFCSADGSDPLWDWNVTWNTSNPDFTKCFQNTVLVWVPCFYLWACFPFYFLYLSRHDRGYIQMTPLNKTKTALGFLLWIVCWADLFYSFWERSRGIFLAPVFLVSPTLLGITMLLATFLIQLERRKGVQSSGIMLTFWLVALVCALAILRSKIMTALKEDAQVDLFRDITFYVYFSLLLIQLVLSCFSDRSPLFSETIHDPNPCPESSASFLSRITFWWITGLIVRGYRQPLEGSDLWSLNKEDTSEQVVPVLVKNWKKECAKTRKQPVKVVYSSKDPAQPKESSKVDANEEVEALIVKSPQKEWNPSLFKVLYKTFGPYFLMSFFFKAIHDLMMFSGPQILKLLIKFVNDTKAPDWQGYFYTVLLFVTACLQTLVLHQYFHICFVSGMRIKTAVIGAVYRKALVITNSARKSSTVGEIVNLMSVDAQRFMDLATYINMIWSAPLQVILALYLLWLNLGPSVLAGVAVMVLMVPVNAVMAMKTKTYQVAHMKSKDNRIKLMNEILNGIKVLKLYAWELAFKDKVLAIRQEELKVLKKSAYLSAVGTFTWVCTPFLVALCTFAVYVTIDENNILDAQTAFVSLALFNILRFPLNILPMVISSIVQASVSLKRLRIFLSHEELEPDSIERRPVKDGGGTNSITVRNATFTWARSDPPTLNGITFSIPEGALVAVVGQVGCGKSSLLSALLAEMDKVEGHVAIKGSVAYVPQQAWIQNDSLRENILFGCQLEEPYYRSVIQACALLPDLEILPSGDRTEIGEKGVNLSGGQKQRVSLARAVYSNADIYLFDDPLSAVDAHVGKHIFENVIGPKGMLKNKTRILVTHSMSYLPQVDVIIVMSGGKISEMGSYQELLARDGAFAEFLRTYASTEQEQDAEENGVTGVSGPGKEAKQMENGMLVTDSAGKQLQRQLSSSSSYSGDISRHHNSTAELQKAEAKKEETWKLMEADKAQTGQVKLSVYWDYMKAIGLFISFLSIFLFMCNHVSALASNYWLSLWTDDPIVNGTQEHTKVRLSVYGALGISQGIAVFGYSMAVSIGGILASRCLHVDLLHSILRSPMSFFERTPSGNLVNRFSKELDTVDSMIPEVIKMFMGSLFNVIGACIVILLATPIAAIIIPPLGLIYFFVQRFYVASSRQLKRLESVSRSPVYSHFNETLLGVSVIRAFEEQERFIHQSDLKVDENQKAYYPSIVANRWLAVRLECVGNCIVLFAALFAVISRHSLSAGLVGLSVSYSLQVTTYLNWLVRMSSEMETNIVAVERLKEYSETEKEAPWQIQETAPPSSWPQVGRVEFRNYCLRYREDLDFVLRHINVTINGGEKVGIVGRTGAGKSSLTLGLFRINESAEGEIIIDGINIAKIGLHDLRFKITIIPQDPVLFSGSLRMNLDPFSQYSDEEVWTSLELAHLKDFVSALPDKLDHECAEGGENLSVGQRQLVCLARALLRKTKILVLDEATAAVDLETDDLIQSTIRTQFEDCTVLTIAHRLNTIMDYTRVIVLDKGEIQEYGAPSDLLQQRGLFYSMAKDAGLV

Sequence of Multidrug resistance associated protein (Homo sapiens) (Q96QA9 as listed by the source): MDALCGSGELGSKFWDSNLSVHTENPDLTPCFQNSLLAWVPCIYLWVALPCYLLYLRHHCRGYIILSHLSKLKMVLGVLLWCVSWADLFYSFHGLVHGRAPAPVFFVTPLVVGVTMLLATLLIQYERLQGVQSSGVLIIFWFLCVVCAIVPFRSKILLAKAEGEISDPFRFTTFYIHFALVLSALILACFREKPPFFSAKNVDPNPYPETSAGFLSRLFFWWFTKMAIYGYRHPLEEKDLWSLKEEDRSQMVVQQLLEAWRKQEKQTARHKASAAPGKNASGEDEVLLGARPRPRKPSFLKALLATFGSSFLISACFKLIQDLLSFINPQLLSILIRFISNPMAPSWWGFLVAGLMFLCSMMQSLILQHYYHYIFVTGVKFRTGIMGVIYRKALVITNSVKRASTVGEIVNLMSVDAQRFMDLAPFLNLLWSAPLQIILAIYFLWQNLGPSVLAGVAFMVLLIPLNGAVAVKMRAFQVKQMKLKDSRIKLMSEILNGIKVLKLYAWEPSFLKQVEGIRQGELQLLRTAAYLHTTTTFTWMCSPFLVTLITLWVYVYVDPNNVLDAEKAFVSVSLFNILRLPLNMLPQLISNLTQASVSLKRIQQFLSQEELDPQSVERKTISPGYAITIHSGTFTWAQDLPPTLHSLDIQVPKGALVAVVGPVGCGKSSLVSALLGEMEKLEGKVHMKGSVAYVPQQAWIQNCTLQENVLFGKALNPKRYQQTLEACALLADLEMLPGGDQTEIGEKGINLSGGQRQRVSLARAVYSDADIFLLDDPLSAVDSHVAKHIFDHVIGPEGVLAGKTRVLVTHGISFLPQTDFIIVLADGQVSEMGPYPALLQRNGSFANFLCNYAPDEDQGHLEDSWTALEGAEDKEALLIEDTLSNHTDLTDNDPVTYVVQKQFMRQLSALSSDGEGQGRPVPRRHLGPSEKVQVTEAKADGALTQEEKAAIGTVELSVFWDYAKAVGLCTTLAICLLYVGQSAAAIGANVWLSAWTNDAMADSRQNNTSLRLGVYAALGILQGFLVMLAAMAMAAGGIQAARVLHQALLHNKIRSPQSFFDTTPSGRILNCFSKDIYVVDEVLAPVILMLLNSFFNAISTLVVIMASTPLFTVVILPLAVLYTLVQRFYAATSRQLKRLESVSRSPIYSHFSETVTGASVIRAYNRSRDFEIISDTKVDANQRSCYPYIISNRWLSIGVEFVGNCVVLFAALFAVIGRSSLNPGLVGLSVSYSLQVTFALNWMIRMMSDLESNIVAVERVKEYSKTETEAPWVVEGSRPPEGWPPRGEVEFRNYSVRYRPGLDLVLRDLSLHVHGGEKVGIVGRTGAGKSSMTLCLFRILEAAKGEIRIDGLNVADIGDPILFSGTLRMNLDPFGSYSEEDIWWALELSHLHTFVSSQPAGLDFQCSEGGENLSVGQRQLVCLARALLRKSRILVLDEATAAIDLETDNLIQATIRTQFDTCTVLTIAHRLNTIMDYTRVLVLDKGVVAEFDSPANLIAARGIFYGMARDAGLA

## CCC1(c2ccccc2)C(=O)NC(=O)NC1=O [PHENOBARBITAL]
[1]
  Activity: inducer [+]
[2]
  Activity: inducer [+]
